From patent US20170281806A1, “CHELATOR-TARGETING LIGAND CONJUGATES FOR CARDIOVASCULAR IMAGING” (priority 2009, published 2017)
Entries after “also recorded” stand apart in the source; their conditions may differ.

Assays:
LV = format: in vivo, dog
Excerpt: In two dogs with right atrial pacing at 180 beats per minute (bpm) for 5 weeks, there was significant deterioration of cardiac ejection fraction at the 5 week timepoint with ejection fraction reduced to less than 25% in both cases.

myocardium [1] = format: in vivo; details: dog
Procedure: In this model, one of the major coronary arteries, either the left anterior descending (LAD) or left circumflex (LCx) coronary artery and all visible collateral vessels are tied off for 120 minutes, followed by complete reflow of the vessels. The chest is closed and the dogs are recovered and followed for up to 8 weeks with MR and SPECT imaging. […] Autoradiography and gamma well counting of 99mTc activity is not possible when using a 99mTc perfusion agent at the same time as 99mTc-EC-glucosamine. […] It is possible that the improved labeling efficiency in the 72 hour and 1 week scans resulted from changes that were made in the instructions for reconsistituting the 99mTc-EC-glucosamine kits. […] This dog will undergo further imaging at 4 weeks and again at 7.5/8 weeks as described above.

LAD zone = assay: Ischemic memory, acute model: SPECT, ex vivo imaging, gamma well counting; format: in vivo, dog; details: for activity in the LAD zone relative to the normal LCx zone (gamma well counter), FIG. 3: after reperfusion
Procedure: FIG. 2. Time line of protocol concerning ischemic memory. LAD flow was reduced by 75% tightening of a snare occluder in dogs to produce resting ischemia for 90 minutes followed by full perfusion. 99mTc-EC-glucosamine was injected 15 minutes after reflow with SPECT performed at one hour post injection.
In two dogs, LAD flow was reduced by 75% by tightening a snare occluder to produce resting ischemia for 90 minutes followed by full reperfusion. 99mTc-EC-glucosamine was injected 15 minutes after reflow with SPECT imaging performed at one hour post injection. No perfusion images were acquired in these studies, however, the perfusion image shown from another dog in the same position on the table is fused with the 99mTc-EC-glucosamine images for orientation purposes only (FIG. 2).
The heart slides were divided into 96 segments and counted in a gamma well counter for microsphere flow, Tl-201 activity, and 99mTc-EC-glucosamine uptake.

myocardium [2] = assay: Ischemic memory, chronic model; format: in vivo, dog; details: LAD flow reduced 90% for 90 minutes
Procedure: In a third dog, the protocol above was modified to examine 99mTc-EC-glucosamine uptake at later time points after reperfusion. In addition, the severity of the ischemic insult was increased such that LAD flow was reduced by 90% rather than 75% for 90 minutes. 99mTc-EC-glucosamine uptake was assessed at 48 hours and one week after reperfusion.

Row | Compound | blood pool activity (LV; dog, in vivo) | uptake in the heart (SPECT) (myocardium [1]; 48 hours post myocardial infarction) | uptake in the posterior wall (SPECT) (myocardium [1]; LCx occlusion, 72 hours post infarction, imaging 2 hours after injection) | uptake in the myocardium (SPECT) (myocardium [1]; baseline before infarction) | uptake by in vivo SPECT (LAD zone; LAD flow reduced 75% for 90 minutes, injected 15 minutes after reflow, SPECT one hour post injection) | activity in the LAD zone relative to the normal LCx zone (gamma well counter), FIG. 3 (LAD zone) | uptake in mildly ischemic areas (LAD zone; flow reduced by 20-40% of normal) | activity relative to the normal zone, central ischemic zone (LAD zone; flow reduced by 60-80% of normal) | uptake in central and border zone ischemic areas (LAD zone; segments by degree of flow reduction during ischemia, FIG. 4) | uptake after reperfusion (myocardium [2]; 48 hours after reperfusion) | uptake after reperfusion (myocardium [2]; one week after reperfusion) | uptake in the LV (SPECT) (LV; dogs, right atrial pacing 180 bpm for 5 weeks)
1 | 99mTc-ethylenedicysteine (EC) glucosamine [99mTc-EC-glucosamine] | significant amount of blood pool activity | small focal hot spot | large amount of 99mTc-EC-glucosamine uptake | no 99mTc-EC-glucosamine uptake observed in the myocardium; also recorded: no 99mTc-EC-glucosamine was observed in the myocardium | focal 99mTc-EC-glucosamine hot spot in the apex of the heart; also recorded: focal hotspot | significantly higher | enhanced 99mTc-EC-glucosamine uptake | greater than 150% | enhanced | uptake was observed | no uptake | 
2 | [201Tl] [Tl-201, thallium-201, reference compound] |  |  |  |  |  | slightly reduced |  |  |  |  |  | 
3 | CCOCC[PH+](CCOCC)CC[PH+](CCOCC)CCOCC.CCOCC[PH+](CCOCC)CC[PH+](CCOCC)CCOCC.[O]=[99Tc]=[O] [tetrofosmin, technetium Tc-99m tetrofosmin, reference compound] |  |  |  |  |  |  |  |  |  |  |  | not completely homogenous
